Laboratory results reported in PubChem BioAssay (NCI).
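Where inhibition never reached the appropriate level, the endpoint shown equals the highest concentration tested. Otherwise, values were interpolated linearly from a five-concentration, 48-hour dose response in 96-well plates. GI50 is the concentration that inhibits growth by half. TGI is the concentration that stops growth completely.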

Columns and labels:
Experiment in all cases: NCI-60 cell line screen, 48 h
CAKI-1 renal = tested on: CAKI-1 renal
A498 renal = tested on: A498 renal
HCT-116 colon = tested on: HCT-116 colon
SF-539 CNS = tested on: SF-539 CNS
OVCAR-5 ovarian = tested on: OVCAR-5 ovarian
ACHN renal = tested on: ACHN renal
SN12C renal = tested on: SN12C renal
OVCAR-4 ovarian = tested on: OVCAR-4 ovarian
SR leukemia = tested on: SR leukemia
NCI-H460 lung = tested on: NCI-H460 lung

Structure (SMILES) | GI50 (CAKI-1 renal) [µM] | TGI (CAKI-1 renal) [µM] | GI50 (A498 renal) [µM] | TGI (A498 renal) [µM] | GI50 (HCT-116 colon) [µM] | TGI (HCT-116 colon) [µM] | GI50 (SF-539 CNS) [µM] | TGI (SF-539 CNS) [µM] | GI50 (OVCAR-5 ovarian) [µM] | TGI (OVCAR-5 ovarian) [µM] | GI50 (ACHN renal) [µM] | TGI (ACHN renal) [µM] | GI50 (SN12C renal) [µM] | TGI (SN12C renal) [µM] | GI50 (OVCAR-4 ovarian) [µM] | TGI (OVCAR-4 ovarian) [µM] | GI50 (SR leukemia) [µM] | TGI (SR leukemia) [µM] | GI50 (NCI-H460 lung) [µM] | TGI (NCI-H460 lung) [µM]
COc1ccc(C(=O)c2cc(OC)c(OC)c(OC)c2)cc1/C=C/C(=O)c1ccc(F)cc1 | 2.78 | 14.6 | 14 | 29.9 | 1.75 | 3.57 | 1.98 | 4.3 | 2.67 | 11.5 | 1.68 | 3.23 | 2.62 | 8.18 | 4.55 | 33.6 | 2.04 | 95.7 | 16 | 52.7
O=C1c2cccnc2-c2nc(-c3ccc(Cl)cc3)cc3c2c1nc1ccccc13 | 67.7 | > 100 | 33.5 | > 100 | 28.4 | > 100 | 59.8 | > 100 | > 100 | > 100 | 15.9 | 33.7 | 24 | > 100 | 43.6 | > 100 | 7.38 | > 100 | 37.2 | > 100
CCc1nc(N)nc(N)c1-c1ccc(NC)c([N+](=O)[O-])c1 |  | > 79 |  | > 87 |  | > 100 |  | > 100 |  | > 100 |  | > 100 |  | > 100 |  | > 100 |  | > 29.4 |  | > 100
COc1c(C(=O)/C=C/c2ccccc2)c(O)cc2occc12 | 8.07 | 29.9 | 7.97 | 21.8 | 3.72 | 12.5 | 3.22 | 13.5 | 5.67 | 19.8 | 4.51 | 19.9 | 4.48 | 15.8 | 5.4 | 26.6 | 3.27 | 22.2 | 3.02 | 8.92
COc1ccc(C[N+](C)(C)N)cc1OC | > 100 | > 100 |  | > 100 | > 100 | > 100 | > 100 | > 100 | > 100 | > 100 | > 100 | > 100 | > 100 | > 100 | > 100 | > 100 | > 100 | > 100 |  | > 100
